According to patent US10940139B2, “Compounds that interact with the Ras superfamily for the treatment of cancers, inflammatory diseases, rasopathies, and fibrotic disease” (Shy Therapeutics LLC, priority 2017, dated 2021):

What was measured:
Rho-A = Rho-A (Homo sapiens (Human), UniProt P61586); assay: Rho inhibition assay (labeled GTP); format: binding; settings: read-out: Rho-A % Inh.
Rac-1 = Rac-1 (Homo sapiens (Human), UniProt P63000); assay: Rac inhibition assay (labeled GTP); format: binding; settings: read-out: Rac-1 % Inh.
[1] = molecular target: KRas G12D/Q61H double mutant (Homo sapiens (Human), UniProt P01116, G12D/Q61H); assay: Ras GTP binding domain inhibition assay (labeled GTP); settings: at 20 μM; read-out: KRas G12D Q61H % Inh.
Sequence of KRas G12D/Q61H double mutant (P01116-2 other isoform, or with tags, fused parts or gaps G12D/Q61H): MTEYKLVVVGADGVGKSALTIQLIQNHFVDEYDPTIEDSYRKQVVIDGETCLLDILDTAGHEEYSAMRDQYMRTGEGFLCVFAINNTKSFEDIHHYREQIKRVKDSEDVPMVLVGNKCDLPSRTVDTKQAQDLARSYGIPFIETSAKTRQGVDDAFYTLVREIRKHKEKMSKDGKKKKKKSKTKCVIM
Procedure, shortened: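 Fluorescence read-out of Cy3-/Cy5-GTP remaining bound to nickel-immobilized His-KRas after washes. Protein was coated overnight at 4° C, then exposed to compound for 3 h at room temperature before a 45 min labeled-GTP incubation.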

KRas G12D mutant protein = KRas G12D mutant protein (Homo sapiens (Human), UniProt P01116, G12D); assay: as above; settings: at 20 μM; read-out: KRas G12D % Inh.
Sequence of KRas G12D mutant protein (P01116-2 other isoform, or with tags, fused parts or gaps G12D): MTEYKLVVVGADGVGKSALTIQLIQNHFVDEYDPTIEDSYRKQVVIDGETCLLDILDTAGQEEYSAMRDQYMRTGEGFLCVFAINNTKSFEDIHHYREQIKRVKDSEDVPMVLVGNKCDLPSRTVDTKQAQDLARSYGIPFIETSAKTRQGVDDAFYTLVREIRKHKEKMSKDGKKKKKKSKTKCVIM
Description: The following method was developed as specific assay for KRas G12D mutant protein.
Buffer-I: • 50 mM Tris, pH 7.5 • 150 mM NaCl (optional) • 1 mM MgCl2 • 1 mM DTT. • KRas G12D mutant protein was expressed as a His-tagged protein. Purified His-KRas G12D protein was diluted in buffer-I to a final concentration of 3-10 μg/ml. • 200 μl of the diluted His-KRas G12D protein was added to a nickel coated 96 well plate and incubated overnight at 4° C. • The next day, wells were washed 3× in 200 μl of Buffer-I. • Then 200 μl of Buffer-I were added to each well in the presence of 1% DMSO. • Tested compounds were added to the protein-coated wells at a concentration of 20 μM, and incubated for 3 hours at room temperature. While performing IC50 measurements a serial dilution of all tested concentrations was prepared.
Then 22 μl of Cy3-GTP or Cy5-GTP was added to each well. The labeled GTP was incubated for 45 min. at room temperature. • Following GTP incubation, wells were washed 3× in Buffer-I, and 200 μl of Buffer-I were added to each well. • Following washes, the amount of bound labeled-GTP was measured with an Eppendorf AF2200 plate reader.

[2] = tested on: MAPK phosphorylation in PANC-1 pancreatic cancer cell line; assay: MAPK cell-based phosphorylation assay (cell-direct ELISA, EGF stimulation); settings: Homo sapiens, * = tested at 10 μM
Procedure, shortened: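 Cell-direct ELISA measured phospho-MAPK, with fluorescence read at 595 nm from AmpliFlu Red. Before fixation, PANC-1 cells starved overnight received 6 hours of compound (30 μM single dose or serial dilutions, 0.3% DMSO, 37° C), followed by 1.5 ng/ml EGF for 15 min.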

Sequence of Rho-A (P61586 whole entry): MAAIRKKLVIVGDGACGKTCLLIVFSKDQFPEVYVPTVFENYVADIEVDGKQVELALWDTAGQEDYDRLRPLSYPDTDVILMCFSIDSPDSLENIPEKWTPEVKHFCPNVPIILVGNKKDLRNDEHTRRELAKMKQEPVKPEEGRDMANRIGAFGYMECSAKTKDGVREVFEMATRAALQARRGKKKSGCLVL

Structure (SMILES) | inhibition at 20 µM (Rho-A) [%] | inhibition at 20 µM (Rac-1) [%] | inhibition at 20 µM [1] [%] | inhibition at 20 µM (KRas G12D mutant protein) [%] | inhibition at 10 µM [2] [%]
Cc1ccccc1C1CN(C(=O)c2csc3c(O)nc(-c4ccccn4)nc23)CCN1 (centres unmarked) [drawing 3664] | 76 to 100 | 76 to 100 | 25 to 50 | – | –
COc1ccnc(-c2nc(O)c3c(CN)csc3n2)c1 | 25 to 50 | 51 to 75 | 0 | – | –
Oc1nc(-c2ccccn2)nc2c(-c3cc(C(F)(F)F)ccc3F)csc12 [drawing 3783] | – | 25 to 50 | 1 to 25 | – | –
CCC(C)c1csc2c(OC)nc(-c3ccccn3)nc12 (centres unmarked) [drawing 3790] | 51 to 75 | – | 51 to 75 | 25 to 50 | –
O=C(c1csc2c(O)nc(-c3ccccn3)nc12)N1CCNC(c2ccc(O)cc2)C1 (centres unmarked) [drawing 3697] | – | – | 76 to 100 | 51 to 75 | –
Oc1nc(-c2ccccn2)nc2c(-c3ccc4c(c3)CCCO4)csc12 [drawing 3774] | – | 25 to 50 | 25 to 50 | 51 to 75 | –
COCc1ccc(-c2csc3c(O)nc(-c4ccccn4)nc23)cc1F [drawing 3718] | 76 to 100 | – | 51 to 75 | 51 to 75 | –
COCCNc1nc(-c2nccn2C)nc2sc(-c3ccccc3)c(-c3ccccc3)c12 [drawing 3853] | – | – | 51 to 75 | 76 to 100 | –
CN(C)Cc1ccc(-c2csc3c(O)nc(-c4ccccn4)nc23)cc1F [drawing 3717] | – | – | 76 to 100 | 76 to 100 | –
Oc1nc(-c2ccccn2)nc2c(-c3cncc(C(F)(F)F)c3)csc12 [drawing 3784] | 25 to 50 | – | 1 to 25 | – | –
Cc1c(C(=O)N2CCN(c3ccccc3)CC2)sc2c(O)nc(-c3ccccn3)nc12 [drawing 3802] | – | 51 to 75 | 51 to 75 | – | –
Oc1nc(-c2ccccn2)nc2c(C3CC3)csc12 [drawing 3836] | – | 51 to 75 | 25 to 50 | 51 to 75 | –
CC(C)Oc1ccc(-c2csc3c(O)nc(-c4nccn4C)nc23)cc1F [drawing 1369] | – | – | – | – | 25 to 50
Cn1cnc(-c2nc(O)c3sc(-c4ccncc4)c(-c4ccccc4)c3n2)c1 [drawing 1309] | – | – | – | – | 0

Continued, in another order:

inhibition at 20 µM (Rho-A) [%] | inhibition at 20 µM (Rac-1) [%] | inhibition at 20 µM [1] [%] | Structure (SMILES) | inhibition at 20 µM (KRas G12D mutant protein) [%] | inhibition at 10 µM [2] [%]
25 to 50 | 25 to 50 | 25 to 50 | Oc1nc(-c2ccccn2)nc2c(-c3ccc(OC4CCCC4)cc3)csc12 [drawing 3735] | – | –
25 to 50 | 51 to 75 | 1 to 25 | COc1ccncc1CCNC(=O)c1csc2nc(-c3ccccn3)nc(N3CCOCC3)c12 [drawing 3669] | – | –
0 | 0 | 0 | NC(=O)C1CCCN1C(=O)c1cccc(-c2cc3nc(N)nc(O)c3s2)c1 (centres unmarked) [drawing 3862] | – | –
51 to 75 | 25 to 50 | 25 to 50 | COc1cnc(CNC(=O)c2csc3nc(-c4ccccn4)nc(N)c23)[nH]c1=O [drawing 3835] | – | –
51 to 75 | 76 to 100 | 1 to 25 | CNS(=O)(=O)CCCNC(=O)c1csc2nc(-c3ccccn3)nc(N3CCOCC3)c12 [drawing 3680] | – | –
51 to 75 | 76 to 100 | 1 to 25 | O=C(NCCc1nnn[nH]1)c1csc2nc(-c3ccccn3)nc(N3CCOCC3)c12 [drawing 3675] | – | –
51 to 75 | 51 to 75 | 25 to 50 | Nc1nc(-c2ccccn2)nc2scc(Br)c12 [drawing 3766] | – | –
1 to 25 | 25 to 50 | 25 to 50 | COc1ccc(CCNC(=O)c2csc3nc(-c4ccccn4)nc(N4CCS(=O)(=O)CC4)c23)cn1 [drawing 3725] | – | –
– | – | 51 to 75 | Cc1sc2c(O)nc(-c3ccccn3)nc2c1C(=O)N1CCN(Cc2cccc(O)c2)CC1 [drawing 3829] | 25 to 50 | –
– | – | 76 to 100 | CN(C)CCOc1cccc(-c2csc3c(O)nc(-c4ccccn4)nc23)c1 [drawing 3811] | 76 to 100 | –
– | – | 51 to 75 | Oc1nc(-c2ccccn2)nc2c(-c3ccccc3C(F)F)csc12 [drawing 3755] | 51 to 75 | –
76 to 100 | – | 51 to 75 | O=C(c1csc2c(O)nc(-c3ccccn3)nc12)N1CCNC(c2cn[nH]c2)C1 (centres unmarked) [drawing 3730] | 25 to 50 | –
– | 51 to 75 | 51 to 75 | COc1cc(-c2csc3c(O)nc(-c4ccccn4)nc23)cnc1C(F)(F)F [drawing 3756] | 51 to 75 | –
51 to 75 | – | 51 to 75 | CC(C)COc1ccc(-c2csc3c(O)nc(-c4ccccn4)nc23)cn1 [drawing 3749] | 51 to 75 | –
